# Columns and labels:
# hERG = hERG (Homo sapiens, UniProt Q12809); test: hERG activity; details: low hERG activity is defined as IC50>1 μM
# [1] = system: off-target enzymes and receptors; test: Selectivity against off-target enzymes and receptors
# [2] = Toxicity (weight loss) over 7 day dosing; assay type: in vivo; details: low toxicity, no significant weight loss
# [3] = Tolerability of once-daily dosing in mice (weight loss); details: once-daily at a dose that fully inhibits CDK8 kinase activity in vivo, experiment terminated
# [4] = system: human umbilical vein endothelial cells (HUVECs); details: HUVEC proliferation; initial study of Aoki et al.; read-out: IC50, anti-proliferative activity against HUVECs; cited from earlier work
# hERG, sequence (Q12809 whole entry): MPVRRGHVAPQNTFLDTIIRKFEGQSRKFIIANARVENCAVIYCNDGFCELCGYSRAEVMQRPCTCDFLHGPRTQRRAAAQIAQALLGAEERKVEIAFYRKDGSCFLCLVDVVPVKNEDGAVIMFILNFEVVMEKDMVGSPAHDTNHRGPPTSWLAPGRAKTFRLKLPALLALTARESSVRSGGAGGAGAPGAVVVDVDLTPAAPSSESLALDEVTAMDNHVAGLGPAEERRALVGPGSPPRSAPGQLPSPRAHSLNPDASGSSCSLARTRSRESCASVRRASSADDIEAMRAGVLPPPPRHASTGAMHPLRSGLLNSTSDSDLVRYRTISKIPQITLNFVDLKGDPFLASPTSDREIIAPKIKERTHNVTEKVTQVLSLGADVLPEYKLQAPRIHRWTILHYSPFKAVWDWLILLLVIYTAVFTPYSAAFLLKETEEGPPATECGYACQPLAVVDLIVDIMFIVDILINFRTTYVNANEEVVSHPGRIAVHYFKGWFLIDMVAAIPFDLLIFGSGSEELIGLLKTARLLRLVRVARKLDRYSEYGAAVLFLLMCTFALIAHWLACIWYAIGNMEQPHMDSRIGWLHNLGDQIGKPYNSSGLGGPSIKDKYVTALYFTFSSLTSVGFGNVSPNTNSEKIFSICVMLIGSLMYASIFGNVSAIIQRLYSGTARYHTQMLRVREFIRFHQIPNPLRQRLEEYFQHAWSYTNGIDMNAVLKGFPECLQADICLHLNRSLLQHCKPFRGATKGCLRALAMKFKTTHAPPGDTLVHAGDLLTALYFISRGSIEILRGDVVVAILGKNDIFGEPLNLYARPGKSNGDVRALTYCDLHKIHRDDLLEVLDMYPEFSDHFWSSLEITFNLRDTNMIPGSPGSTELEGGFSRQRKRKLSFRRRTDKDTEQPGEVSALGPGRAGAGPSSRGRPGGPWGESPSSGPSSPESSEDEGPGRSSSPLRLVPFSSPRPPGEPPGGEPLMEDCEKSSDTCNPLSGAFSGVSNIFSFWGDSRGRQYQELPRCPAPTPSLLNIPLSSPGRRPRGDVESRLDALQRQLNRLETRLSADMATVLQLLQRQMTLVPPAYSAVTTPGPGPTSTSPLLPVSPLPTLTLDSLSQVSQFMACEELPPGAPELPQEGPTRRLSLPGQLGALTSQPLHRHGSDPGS
selectivity against off-target enzymes and receptors [1],Compound,IC50 (hERG) [nM],weight loss [2] [%],weight loss in the animal [3],IC50 [4] [nM]
high selectivity,"C[C@]12CC=C3C=C4CC[C@@H](O)C[C@]45CC[C@]3(O5)[C@@H]1CC[C@@H]2c1ccc2ccncc2c1 [Compound A, (3S,3 aR,9R,10aR,12aS,12bR)-3-(isoquinolin-7-yl)-3a-methyl-1,2,3,3 a,4,7,8,9,10,11,12,12b-dodecahydro-10a,12a-epoxybenzo[4,5]cyclohepta[1,2-e]inden-9-ol]",> 1000,< 15,–,–
–,Cortistatin A,–,–,unacceptable weight loss,1.8

# Source: patent US20190062340A1, “CORTISTATIN ANALOGS” (PRESIDENT AND FELLOWS OF HARVARD COLLEGE, priority 2016, published 2019)
